# Experimental data reported in patent publication US20250213594A1 (priority 2023, published 2025).
# Tests used:
# [1] = assay type: in vivo, human; details: 1 mg QD oral 28 days, n = 10
# Protocol: The study in the present disclosure was conducted in accordance with Therapeutic Goods Administration and Human Research Ethics Committee guidelines. The study was conducted at the Phase 1 Unit of Nucleus Network Pty Ltd in Brisbane, Australia from October 2021 to March 2022. The entire study was conducted in accordance with the provisions of the Declaration of Helsinki and Good Clinical Practice guidelines, and the protocol was registered at www.clinicaltrials.gov (NCT04945226; registration date: Jun. 30, 2021). Healthy men aged 18 to 55 years with a body mass index (BMI) of 18 to 32 kg/m^2 participated in this study. Potential subjects completed a signed informed consent form and were subjected to screening prior to the study. A total of 40 healthy, non-smoking adult men were included in the study across three cohorts (FIG. 1).
# Each subject was followed up until day 43. In contrast, cohort 2 was divided into two groups.
# Cohort 2 was divided into two groups. […]
# The clinical status and vital signs of the subjects were evaluated before and after participation in the study to investigate adverse effects. Hematological parameters such as white blood cell, red blood cell, hemoglobin, hematocrit, and platelet counts were analyzed. Adverse effects (AEs) were recorded in terms of symptoms and signs, duration, intensity, relationship to study drug, action taken, outcome, and seriousness. […]
# [2] = tested on: DHT; test: Phase 1 clinical study: plasma DHT as pharmacodynamic marker; assay type: in vivo, human
# [3] = set-up: species or system human; details: model estimate
# Protocol: PK and PD modeling were performed to determine the therapeutic dose in AGA. A two-compartment PK model using observed clinical study data was adopted. […] The effective dose for additional clinical studies was estimated using established PK/PD models. All PK/PD modeling and simulations were performed using Phoenix WinNonlin, v.8.3.
# [4] = male, human, in vivo, po, 1 mg
# Protocol: (§1) A total of 40 non-smoking, healthy adult males were recruited for this study. Subjects who passed the screening process and were deemed eligible for the study were assigned to three groups. […] Each subject was followed up until day 43. In contrast, cohort 2 was divided into two groups. […] The subjects returned to the hospital according to a pre-determined schedule for 43 or 35 days and were assessed for tolerability, PK, and PD. […] In this study, the plasma drug concentration was analyzed on day 28 to investigate the comparative effect.
# (§2) Whole blood was collected and centrifuged to obtain plasma. […] Maximum plasma concentration (Cmax), time to reach Cmax (Tmax), areas under the curve for 24 and 672 hours after dosing (AUC0-24, and AUC0-672), areas under the curve from time 0 to the last quantified concentration and to infinity (AUC0-t, and AUC0-inf), total plasma clearance, apparent total volume of distribution based on steady state or terminal phase, and elimination half-life were assessed.
# (§3) PK analysis was based on a non-compartmental analysis approach and was performed in the PK population (patients who received at least one dose and had evaluable PK data). PK parameters were calculated using plasma concentrations and actual blood sampling times using Phoenix WinNonlin v. 8.3 (Certara, Princeton, NJ, USA) and summarized.
# [5] = 1 mg finasteride tablets, previous clinical studies; cited from earlier work
# [6] = clinical; details: male, human, in vivo, po
# Protocol: as §1, §2, §3
compound,measurement,setting,value
CC(C)(C)NC(=O)[C@H]1CC[C@H]2[C@@H]3CC[C@H]4NC(=O)C=C[C@]4(C)[C@H]3CC[C@]12C [Finasteride],COVID-19,[1],0 n (%)
same,baseline-corrected median DHT values (%) at all time points,[2]; 1 mg oral QD 28 days,−74.04 to 3.58%
same,effect on DHT,"[2]; all concentrations of IVL3001, oral 1 mg tablets",inhibitory effect
same,tvCL2 (clearance between central compartment and peripheral compartment),[3],18.9 L/h
same,tvCL (clearance from central compartment),[3],18.4 L/h
same,mean elimination half-life (t1/2el),[4],6.9 h
same,bioavailability,[5],about 65%
same,half-life,"[6]; 1 mg, mean elimination half-life (t1/2el)",384 min
same,half-life,[6]; in vivo mean half-life,~384 min
